Data: US11427601B1, “Inhibitors of KEAP1-Nrf2 protein-protein interaction” (Janssen Pharmaceutica NV, priority 2018, dated 2022)

How the values were obtained:
[1] = test system: NrF2 activation of the ARE (Glo-Response ARE-luc2P HEK293 cell line); assay: ARE luciferase reporter assay in HEK293 cells; type: cell-based; details: average of results obtained
Experimental: The ARE assay utilizes a luciferase reporter cell line where the signal is proportional to NrF2 activation of the ARE. The cell line is commercially available from Promega and was prepared by stably transfecting HEK293 cells with a vector (pGL4.11) which contains the ARE response element upstream of a minimal promoter. The promoter drives expression of luc2 firefly luciferase gene. Upon disruption of KEAP1-Nrf2 binding by compound, Nrf2 translocates into the nucleus where it binds to the ARE and activates transcription of luciferase.
The materials used in this ARE assay are as follows: Glo-Response ARE-luc2P HEK293 cell line and One-Glo Luciferase Assay System were purchased from Promega (Madison, Wis.). Dulbecco's Modified Eagle medium ((DMEM), low glucose, GlutaMAX, pyruvate), fetal bovine serum (certified, heat inactivated), hygromycin B, Dulbecco's phosphate-buffered saline were purchased from Life Technologies (Grand Island, N.Y.). Penicillin, streptomycin solution (100×) and 0.05% trypsin-EDTA were purchased from Corning (Manassas, Va.). DMSO was purchased from EMD Millipore.
The ARE assay protocol is as follows: cells were maintained in growth medium (DMEM +10% FBS, 200 μg/mL hygromycin B, p-s) between 20-90% confluency by splitting twice per week. One day before the assay, cells were trypsinized, counted to determine viable cell count, and re-suspended in assay medium (DMEM +10% FBS, p-s) at 250,000 cells/mL. […] 100% DMSO was used as the low control. A 11-point dose series of the control compound was included on every plate. Compounds were spotted to an intermediate plate (Greiner # 781280 V-bottom 384 well plate) using the Echo acoustic dispenser (Labscyte San Jose, Calif.). Spot size was 240 nL.
On the day of the assay, 60 mL per well of assay medium was added to the pre-spotted plate to make 2X compound stocks using the Combi (Thermo Waltham, Mass.). Compound and medium were mixed on the Janus and 20 mL of 2× compound stock was added to the cell plate which already contained 20 mL of assay medium from cell plating. […] The plates were returned to the tissue culture incubator for 24 hours.
The next day, luciferase activity was measured according to the manufacturer's protocol for One-Glo luciferase reagent. The plates were removed from the incubator and allowed to equilibrate to room temperature for 30 min. Forty microliters of One-Glo reagent (equilibrated to room temperature) was added per well using the Combi. The plates were mixed on an orbital shaker for 3 min. Luminescence was read on the BMG Pherastar multiplate reader (Cary, N.C.) using the luminescence protocol (1 sec interval).
The dose-response data were analyzed in Genedata Screener using 4PL nonlinear regression model. Raw luminescence counts as well as normalized values were used for data analysis.

[2] = biological target: Kelch domain of human KEAP 1 (321-624 aa) (Homo sapiens (Human), UniProt Q14145); assay: KEAP1 KELCH ThermoFluor binding assay; details: KEAP Kelch 1.1 μM, pH 7.0, average of results obtained, read-out: Tf Kd
Sequence of Kelch domain of human KEAP 1 (321-624 aa) (Q14145 321-624): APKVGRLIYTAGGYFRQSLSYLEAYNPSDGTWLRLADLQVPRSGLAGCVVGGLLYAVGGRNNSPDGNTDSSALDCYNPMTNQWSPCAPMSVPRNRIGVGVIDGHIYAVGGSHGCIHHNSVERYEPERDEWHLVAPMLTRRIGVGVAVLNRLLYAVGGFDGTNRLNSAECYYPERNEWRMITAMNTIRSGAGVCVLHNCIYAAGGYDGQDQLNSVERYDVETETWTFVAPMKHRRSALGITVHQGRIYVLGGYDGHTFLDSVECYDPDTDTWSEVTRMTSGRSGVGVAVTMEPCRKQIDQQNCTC
Text: The shift in the melting point described as a ΔTm is proportional to the concentration and affinity of the ligand. The compound potency may be compared as a rank order of either ΔTm values at a single compound concentration or in terms of KD values, estimated from concentration response curves.
The protein was expressed in E. coli with 6His tag that was cleaved prior to receipt for use.
Protein (KEAP Kelch) and compound solutions were dispensed into black 384-well polypropylene PCR microplates (Abgene) and overlayed with silicone oil (1 μL, Fluka, type DC 200) to prevent evaporation.

Molecule	EC50 ([1]; Homo sapiens, HEK293, 24 h)	EC50 ([1]; 24 hours)	Kd [2]
Cc1ccc([C@H](CC(=O)O)c2cc(OC(F)F)c3c(c2)nnn3C)cc1CN1C[C@H]2CCCN2c2ncccc2S1(=O)=O (single isomer, unassigned) [Example 247, (*S)-3-(7-(Difluoromethoxy)-1-methyl-1H-benzo[d][1,2,3]triazol-5-yl)-3-(3-(((R)-5,5-dioxido-7a,8,9,10-tetrahydropyrido[2,3-f]pyrrolo[2,1-d][1,2,5]thiadiazepin-6(7H)-yl)methyl)-4-methylphenyl)propanoic acid]	225 nM	–	–
Cc1cnc2c(c1)S(=O)(=O)N(Cc1cc([C@H](CC(=O)O)c3ccn4c(C(F)(F)F)nnc4c3C)ccc1C)C[C@@H]1CCCCN21 (relative stereo) [Example 307, (*S)-3-(4-methyl-3-(((*S)-3-methyl-5,5-dioxido-7,7a,8,9,10,11-hexahydro-6H-dipyrido[2,1-d:2′,3′-f][1,2,5]thiadiazepin-6-yl)methyl)phenyl)-3-(8-methyl-3-(trifluoromethyl)-[1,2,4]triazolo[4,3-a]pyridin-7-yl)propanoic acid]	–	2 nM	–
Cc1cnc2c(c1)S(=O)(=O)N(Cc1cc([C@H](c3ccn4c(C(F)(F)F)nnc4c3C)C(C)(C)C(=O)O)cnc1C)CC1(CC1)O2 (single isomer, unassigned) [Example 573, (*S)-2,2-Dimethyl-3-(8-methyl-3-(trifluoromethyl)-[1,2,4]triazolo[4,3-a]pyridin-7-yl)-3-(6-methyl-5-((8′-methyl-1′,1′-dioxidospiro[cyclopropane-1,4′-pyrido[2,3-b][1,4,5]oxathiazepin]-2′(3′H)-yl)methyl)pyridin-3-yl)propanoic acid]	321 nM	–	–
(*S)-3-(3-((7′-(3-((2-(2-aminoethoxy)ethyl)amino)-3-oxopropyl)-1′,1′-dioxido-2,3,5,6-tetrahydrospiro[pyran-4,4′-pyrido[2,3-b][1,4,5]oxathiazepin]-2′(3′H)-yl)methyl)-4-methylphenyl)-2,2-dimethyl-3-(8-methyl-3-(trifluoromethyl)-[1,2,4]triazolo[4,3-a]pyridin-7-yl)propanoic acid [Example 345]	–	> 20 nM	–
Cc1ccc(C(c2ccn3c(C(F)(F)F)nnc3c2C)C(C)C(=O)O)cc1CN1C[C@@H]2CCCCN2c2ncccc2S1(=O)=O (stereo in doubt) [Example 129, 3-(3-(((*S)-5,5-Dioxido-7,7a,8,9,10,11-hexahydro-6H-dipyrido[2,1-d:2′,3′-f][1,2,5]thiadiazepin-6-yl)methyl)-4-methylphenyl)-2-methyl-3-(8-methyl-3-(trifluoromethyl)-[1,2,4]triazolo[4,3-a]pyridine-7-yl)propanoic acid]	6.8 nM	–	< 1 nM
CCc1nnc2c(C)c([C@H](CC(=O)O)c3ccc(C)c(CN4C[C@H]5CCCN5c5ncccc5S4(=O)=O)c3)ccn12 (relative stereo) [Example 283, (*R)-3-(3-(((R)-5,5-dioxido-7a,8,9,10-tetrahydropyrido[2,3-f]pyrrolo[2,1-d][1,2,5]thiadiazepin-6(7H)-yl)methyl)-4-methylphenyl)-3-(3-ethyl-8-methyl-[1,2,4]triazolo[4,3-a]pyridin-7-yl)propanoic acid]	–	4170 nM	–
Cc1ccc([C@H](c2ccc3c(nnn3C3CC3)c2C)C(C)(C)C(=O)O)cc1CN1CC2(CC2)Oc2nc(N[C@@H](C)CN3CCCCC3)c(C)cc2S1(=O)=O (relative stereo) [Example 660, (*R)-3-(1-Cyclopropyl-4-methyl-1H-benzo[d][1,2,3]triazol-5-yl)-2,2-dimethyl-3-(4-methyl-3-((8′-methyl-1′,1′-dioxido-7′-(((S)-1-(piperidin-1-yl)propan-2-yl)amino)spiro[cyclopropane-1,4′-pyrido[2,3-b][1,4,5]oxathiazepin]-2′(3′H)-yl)methyl)phenyl)propanoic acid]	–	235 nM	–
Cc1cnc2c(c1)S(=O)(=O)N(Cc1cc(C(c3ccn4c(C(F)(F)F)nnc4c3C)C(C)(C)C(=O)O)cnc1C)CC1(CC1)O2 (single isomer, unassigned) [Example 574, (*R)-2,2-Dimethyl-3-(8-methyl-3-(trifluoromethyl)-[1,2,4]triazolo[4,3-a]pyridin-7-yl)-3-(6-methyl-5-((8′-methyl-1′,1′-dioxidospiro[cyclopropane-1,4′-pyrido[2,3-b][1,4,5]oxathiazepin]-2′(3′H)-yl)methyl)pyridin-3-yl)propanoic acid]	14600 nM	–	–
Cc1ccc([C@H](c2cc(C)n3c(C(F)(F)F)nnc3c2C)C(C)C(=O)O)cc1CN1C[C@@H]2CCCCN2c2ncccc2S1(=O)=O (relative stereo) [Example 133, (3*R)-3-(5,8-Dimethyl-3)-(trifluoromethyl)-[1,2,4-triazolo[4,3-a]pyridine-7-yl)-3-(3-((*S)-5,5-dioxido-7,7a,8,9,10,11-hexahydro-6H-dipyrido[2,1-d:2′,3′-f][1,2,5]thiadiazepin-6-yl)methyl)-4-methylphenyl)-2-methylpropanoic acid]	2 nM	–	–
Cc1ccc([C@@H](c2ccn3c(C(F)(F)F)nnc3c2C)C(C)(C)C(=O)O)cc1CN1CC2(CC2)Oc2nc(OCCN3CCCC3)ccc2S1(=O)=O (single isomer, unassigned) [Example 598, (*S)-3-(3-((1′,1′-dioxido-7′-(2-(pyrrolidine-1-yl)ethoxy)spiro[cyclopropane-1,4′-pyrido[2,3-b][1,4,5]oxathiazepin]-2′(3′H)-yl)methyl)-4-methylphenyl)-2,2-dimethyl-3-(8-methyl-3-(trifluoromethyl)-[1,2,4]triazolo[4,3-a]pyridine-7-yl)propanoic acid]	–	8.85 nM	–
CCn1nnc2c(C)c(C(CC(=O)O)c3ccc(C)c(CN4CC5(COC5)Oc5ccccc5S4(=O)=O)n3)ccc21 (racemic) [Example 237, (R/S)-3-(6-((1,1-Dioxidospiro[benzo[b][1,4,5]oxathiazepine-4,3′-oxetan]-2(3H)-yl)methyl)-5-methylpyridin-2-yl)-3-(1-ethyl-4-methyl-1H-benzo[d][1,2,3]triazol-5-yl)propanoic acid]	–	–	1.5 nM
Cc1ccc([C@H](CC(=O)O)c2ccc3c(nnn3CC3CC3)c2C(F)F)cc1CN1C[C@@H]2CCCCN2c2ncccc2S1(=O)=O (relative stereo) [Example 172, (*S)-3-(1-(Cyclopropylmethyl)-4-(difluoromethyl)-1H-benzo[d][1,2,3]triazol-5-yl)-3-(3-(((*S)-5,5-dioxido-7,7a,8,9,10,11-hexahydro-6H-dipyrido[2,1-d:2′,3′-f][1,2,5]thiadiazepin-6-yl)methyl)-4-methylphenyl)propanoic acid]	–	19 nM	–
Cc1ccc([C@H](CC(=O)O)c2ccn3c(C(F)(F)F)nnc3c2C)cc1CN1CC2(COC2)Oc2ccc(F)cc2S1(=O)=O (single isomer, unassigned) [Example 99]	–	5.8 nM	–
